In patent US11459338B2, “Heterocyclic compounds as PRMT5 inhibitors” (JUBILANT EPISCRIBE LLC, priority 2018, dated 2022):

Key:
PRMT5/MEP50 = target: T1, PRMT5/MEP50 (Homo sapiens, UniProt O14744); assay: PRMT5/MEP50 enzyme assay on peptide substrates (3H-SAM Flashplate); type: biochemical; details: PRMT5/MEP50 10 nM, H4 1-15aa peptide 100 nM, 3H-SAM 1 μM
T1 construct: Full-length human PRMT5 (NP_006100)
From the text: General materials like S-adenocylmethionine (SAM), S-adenosylhomocysteine (SAH), Tris-HCl, DTT, […] (BSA) and Tween-20 were purchased from Sigma-Aldrich. 3H-SAM and 384-well streptavidin Flashplates were purchased from Perkin Elmer. Substrates that were used were Peptide representative of human Histone 4 residues 1-15 which was purchased from Rockland antibodies and assays.
PRMT5/MEP50 Enzyme assay on Peptide Substrates.
The assays were all performed in a buffer consisting of 50 mMTris-HCl, pH 8, 1 mM DTT, 0.01% BSA, 0.01% Tween-20, prepared on the day of use. Test compounds were diluted 3-fold in assay buffer (final DMSO concentration of 1%) and added into a 384-well OptiPlate (PerkinElmer, #6007290). A cocktail (10 μL) of PRMT5/MEP50 enzyme and the peptide was added to the wells. The compounds were allowed to incubate with PRMT5/MEP50 for 30 min at room temperature, then 5 μL of ^3H-SAM was added to initiate the reaction. The final concentrations of the components were as follows: PRMT5/MEP50-10 nM, H4, 1-15aa peptide-100 nM, ^3H-SAM-1 μM. The assays were stopped by the addition of 1 mM SAH. 25 μL of the reaction from the 384-well OptiPlate was then transferred to a 384-well Flashplate and the biotinylated peptides were allowed to bind to the streptavidin surface for at least 1 h, before being washed twice with 50 mMTris-HCl, pH 8, 0.1% Tween-20. The plates were then read in a PerkinElmer Topcount plate reader to measure the quantity of ^3H-labeled peptide bound to the Flashplate surface measured as disintegrations per minute (dpm), also referred to as counts per minute (cpm).
The IC50 values were calculated using a 4-parameter variable slope fit algorithm (cpm—counts per minute, cmpd—signal in assay well, and cpmmax and cpmmin mare the respective minimum and maximum signal controls).

Z-138 cells = assay: Z-138 long term proliferation assay (Cell Titer Glo); type: cell-based; details: Homo sapiens, 192 h; Z-138 cells, cell viability, day 8; read-out: PRMT5 Z138 GI50 Day 8 μM
Description: A compound source plate was prepared by performing ten-point 3-fold dilution in DMSO, such that the final top concentration of the compound was 10 μM, and DMSO was 0.3%. The total volume of compounds added was 20 μL. The cells were incubated for 96 h at 37° C., 5% CO2. […] The cells were re-treated with the compounds and incubated for an additional four days. Cell viability was measured on both day 4 and day 8, by adding 25 μL of Cell Titer Glo reagent to an equal volume of cell suspension. Luminescence was read on a PerkinElmer Victor3 multiplate reader. The concentration of compound inhibiting cell viability by 50% was determined using a 4-parameter, variable slope fit of the normalized dose response curves.

T1 sequence (O14744 whole entry): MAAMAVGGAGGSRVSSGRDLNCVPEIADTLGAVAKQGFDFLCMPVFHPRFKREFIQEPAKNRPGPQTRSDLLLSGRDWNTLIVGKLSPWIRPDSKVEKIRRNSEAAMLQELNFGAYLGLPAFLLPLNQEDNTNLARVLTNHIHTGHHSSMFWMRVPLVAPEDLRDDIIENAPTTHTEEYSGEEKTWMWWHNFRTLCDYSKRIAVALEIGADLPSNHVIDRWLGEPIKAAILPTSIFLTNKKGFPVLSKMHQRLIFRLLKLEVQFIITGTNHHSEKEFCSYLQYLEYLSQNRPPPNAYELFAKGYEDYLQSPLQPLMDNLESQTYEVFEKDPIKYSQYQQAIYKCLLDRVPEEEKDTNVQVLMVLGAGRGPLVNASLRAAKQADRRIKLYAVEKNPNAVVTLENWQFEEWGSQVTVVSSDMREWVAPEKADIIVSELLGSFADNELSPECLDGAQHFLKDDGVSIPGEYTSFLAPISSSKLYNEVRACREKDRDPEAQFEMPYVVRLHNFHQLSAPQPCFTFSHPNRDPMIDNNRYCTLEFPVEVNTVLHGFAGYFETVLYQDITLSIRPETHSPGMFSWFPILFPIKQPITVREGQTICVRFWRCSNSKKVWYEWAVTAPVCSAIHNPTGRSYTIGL
T1 sequence (Q9BQA1 whole entry partner): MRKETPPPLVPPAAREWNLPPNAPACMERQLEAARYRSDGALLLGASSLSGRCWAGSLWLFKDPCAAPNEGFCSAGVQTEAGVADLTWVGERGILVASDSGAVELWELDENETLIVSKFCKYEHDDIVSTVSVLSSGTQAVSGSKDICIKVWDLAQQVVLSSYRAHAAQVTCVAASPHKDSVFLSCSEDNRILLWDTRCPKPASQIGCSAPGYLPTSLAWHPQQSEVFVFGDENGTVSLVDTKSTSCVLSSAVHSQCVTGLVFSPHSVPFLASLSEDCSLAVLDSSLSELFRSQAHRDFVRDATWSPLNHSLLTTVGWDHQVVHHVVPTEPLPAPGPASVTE

IC50 (PRMT5/MEP50) [µM] | Structure (SMILES) | GI50 (Z-138 cells) [µM]
0.01 to 1 | CC(=O)N1CCC(C2CCc3nc(C(=O)NC[C@H](O)CN4CCc5ccccc5C4)cn3C2)CC1 (single isomer, unassigned) [Example 118A] | 0.01 to 1
0.01 to 1 | O=C(NC[C@H](O)CN1CCc2ccccc2C1)c1cn2cc(-c3cnn(C4COC4)c3)ccc2n1 [Example 22, (S)—N-(3-(3,4-dihydroisoquinolin-2(1H)-yl)-2-hydroxypropyl)-6-(1-(oxetan-3-yl)-1H-pyrazol-4-yl)imidazo[1,2-a]pyridine-2-carboxamide] | 0.01 to 1
0.01 to 1 | CC(C)c1nc(-c2ccc3nc(C(=O)NC[C@H](O)CN4CCc5ccccc5C4)cn3c2)no1 [Example 24, (S)—N-(3-(3,4-dihydroisoquinolin-2(1H)-yl)-2-hydroxypropyl)-6-(5-isopropyl-1,2,4-oxadiazol-3-yl)imidazo[1,2-a]pyridine-2-carboxamide] | 0.01 to 1
0.01 to 1 | O=C(NC[C@H](O)CN1CCc2ccccc2C1)c1cn2cc(-c3noc(C4CC4)n3)ccc2n1 [Example 25, (S)-6-(5-cyclopropyl-1,2,4-oxadiazol-3-yl)-N-(3-(3,4-dihydroisoquinolin-2(1H)-yl)-2-hydroxypropyl)imidazo[1,2-a]pyridine-2-carboxamide] | 0.01 to 1
0.01 to 1 | O=C(NC[C@H](O)CN1CCc2ccccc2C1)c1cn2cc(C3CCOCC3)ccc2n1 [Example 26, (S)—N-(3-(3,4-dihydroisoquinolin-2(1H)-yl)-2-hydroxypropyl)-6-(tetrahydro-2H-pyran-4-yl)imidazo[1,2-a]pyridine-2-carboxamide] | 0.01 to 1
0.01 to 1 | CC(=O)N1CCC(c2ccc3nc(C(=O)NC[C@H](O)CN4CCc5ccccc5C4)cn3c2)CC1 [Example 27, (S)-6-(1-acetylpiperidin-4-yl)-N-(3-(3,4-dihydroisoquinolin-2(1H)-yl)-2-hydroxypropyl)imidazo[1,2-a]pyridine-2-carboxamide] | 0.01 to 1
0.01 to 1 | Cc1ncc(-c2ccc3nc(C(=O)NC[C@H](O)CN4CCc5ccccc5C4)cn3c2)cn1 [Example 28, (S)—N-(3-(3,4-dihydroisoquinolin-2(1H)-yl)-2-hydroxypropyl)-6-(2-methylpyrimidin-5-yl)imidazo[1,2-a]pyridine-2-carboxamide] | 0.01 to 1
0.01 to 1 | Cc1ccc(-c2ccc3nc(C(=O)NC[C@H](O)CN4CCc5ccccc5C4)cn3c2)cn1 [Example 29, (S)—N-(3-(3,4-dihydroisoquinolin-2(1H)-yl)-2-hydroxypropyl)-6-(6-methylpyridin-3-yl)imidazo[1,2-a]pyridine-2-carboxamide] | 0.01 to 1
0.01 to 1 | Cc1ccc(-c2ccc3nc(C(=O)NC[C@H](O)CN4CCc5ccccc5C4)cn3c2)nn1 [Example 30, (S)—N-(3-(3,4-dihydroisoquinolin-2(1H)-yl)-2-hydroxypropyl)-6-(6-methylpyridazin-3-yl)imidazo[1,2-a]pyridine-2-carboxamide] | 0.01 to 1
0.01 to 1 | Cc1ncc(-c2ccc3nc(C(=O)NC[C@H](O)CN4CCc5ccccc5C4)cn3c2)s1 [Example 31, (S)—N-(3-(3,4-dihydroisoquinolin-2(1H)-yl)-2-hydroxypropyl)-6-(2-methylthiazol-5-yl)imidazo[1,2-a]pyridine-2-carboxamide] | 0.01 to 1
0.01 to 1 | Cc1nc(-c2ccc3nc(C(=O)NC[C@H](O)CN4CCc5ccccc5C4)cn3c2)sc1C [Example 32, (S)—N-(3-(3,4-dihydroisoquinolin-2(1H)-yl)-2-hydroxypropyl)-6-(4,5-dimethylthiazol-2-yl)imidazo[1,2-a]pyridine-2-carboxamide] | 0.01 to 1
0.01 to 1 | O=C(NC[C@H](O)CN1CCc2ccccc2C1)c1cn2cc(-c3ccc(Cl)cn3)ccc2n1 [Example 33, (S)-6-(5-chloropyridin-2-yl)-N-(3-(3,4-dihydroisoquinolin-2(1H)-yl)-2-hydroxypropyl)imidazo[1,2-a]pyridine-2-carboxamide] | 0.01 to 1
0.01 to 1 | Cn1cc(-c2ccc3nc(C(=O)NC[C@H](O)CN4CCc5ccccc5C4)cn3c2)ccc1=O [Example 34, (S)—N-(3-(3,4-dihydroisoquinolin-2(1H)-yl)-2-hydroxypropyl)-6-(1-methyl-6-oxo-1,6-dihydropyridin-3-yl)imidazo[1,2-a]pyridine-2-carboxamide] | 0.01 to 1
0.01 to 1 | Cn1ccc(-c2ccc3nc(C(=O)NC[C@H](O)CN4CCc5ccccc5C4)cn3c2)cc1=O [Example 35, (S)—N-(3-(3,4-dihydroisoquinolin-2(1H)-yl)-2-hydroxypropyl)-6-(1-methyl-2-oxo-1,2-dihydropyridin-4-yl)imidazo[1,2-a]pyridine-2-carboxamide] | 0.01 to 1
0.01 to 1 | CC(C)n1cc(-c2ccc3nc(C(=O)NC[C@H](O)CN4CCc5ccccc5C4)cn3c2)nn1 [Example 37, (S)—N-(3-(3,4-dihydroisoquinolin-2(1H)-yl)-2-hydroxypropyl)-6-(1-isopropyl-1H-1,2,3-triazol-4-yl)imidazo[1,2-a]pyridine-2-carboxamide] | 0.01 to 1
0.01 to 1 | CNC(=O)c1ccc2nc(C(=O)NC[C@H](O)CN3CCc4ccccc4C3)cn2c1 [Example 38, (S)—N2-(3-(3,4-dihydroisoquinolin-2(1H)-yl)-2-hydroxypropyl)-N6-methylimidazo[1,2-a]pyridine-2,6-dicarboxamide] | 0.01 to 1
1 to 5 | NS(=O)(=O)c1ccc2nc(C(=O)NC[C@H](O)CN3CCc4ccccc4C3)cn2c1 [Example 40, (S)—N-(3-(3,4-dihydroisoquinolin-2(1H)-yl)-2-hydroxypropyl)-6-sulfamoylimidazo[1,2-a]pyridine-2-carboxamide] | > 5
0.01 to 1 | Cn1ccc(-c2cnc3nc(C(=O)NC[C@H](O)CN4CCc5ccccc5C4)cn3c2)cc1=O [Example 44, (S)—N-(3-(3,4-dihydroisoquinolin-2(1H)-yl)-2-hydroxypropyl)-6-(1-methyl-2-oxo-1,2-dihydropyridin-4-yl)imidazo[1,2-a]pyrimidine-2-carboxamide] | 0.01 to 1
0.01 to 1 | Cn1cc(-c2ccc3nc(C(=O)NC[C@H](O)CN4CCc5ccccc5C4)cn3n2)cn1 [Example 46, (S)—N-(3-(3,4-dihydroisoquinolin-2(1H)-yl)-2-hydroxypropyl)-6-(1-methyl-1H-pyrazol-4-yl)imidazo[1,2-b]pyridazine-2-carboxamide] | 0.01 to 1
0.01 to 1 | CC(=O)N1CCC(c2ccc3nc(C(=O)NC[C@H](O)CN4CCc5ccccc5C4)cn3n2)CC1 [Example 49, (S)-6-(1-acetylpiperidin-4-yl)-N-(3-(3,4-dihydroisoquinolin-2(1H)-yl)-2-hydroxypropyl)imidazo[1,2-b]pyridazine-2-carboxamide] | 0.01 to 1
1 to 5 | O=C(NC[C@H](O)CN1CCc2ccccc2C1)c1cn2nc(C(F)(F)F)ccc2n1 [Example 50, (S)—N-(3-(3,4-dihydroisoquinolin-2(1H)-yl)-2-hydroxypropyl)-6-(trifluoromethyl)imidazo[1,2-b]pyridazine-2-carboxamide] | 1 to 5
